Source: patent US10501522B2, “Peptides and combination of peptides for use in immunotherapy against various tumors” (IMMATICS BIOTECHNOLOGIES GMBH, priority 2015, dated 2019)

Test system: CD8+ T cells
Experiment: In vitro T-cell priming assay with aAPCs loaded with peptide/MHC and anti-CD28, pMHC multimer readout
Format: cell-based, human
Conditions: for in vitro immunogenicity: wells: percentage of positive wells; for Wells positive [%]: in vitro immunogenicity, HLA-A*02 restricted peptides, percentage of positive wells (among evaluable)
Text: In order to obtain information regarding the immunogenicity of the TUMAPs of the present invention, the inventors performed investigations using an in vitro T-cell priming assay based on repeated stimulations of CD8+ T cells with artificial antigen presenting cells (aAPCs) loaded with peptide/MHC complexes and anti-CD28 antibody.
In order to perform in vitro stimulations by artificial antigen presenting cells loaded with peptide-MHC complex (pMHC) and anti-CD28 antibody, the inventors first isolated CD8+ T cells from fresh HLA-A*02 leukapheresis products via positive selection using CD8 microbeads (Miltenyi Biotec, Bergisch-Gladbach, Germany) of healthy donors obtained from the University clinics Mannheim, Germany, after informed consent. PBMCs and isolated CD8+ lymphocytes were incubated in T-cell medium (TCM) until use consisting of RPMI-Glutamax (Invitrogen, Karlsruhe, Germany) supplemented with 10% heat inactivated human AB serum (PAN-Biotech, Aidenbach, Germany), 100 U/ml Penicillin/100 μg/ml Streptomycin (Cambrex, Cologne, Germany), 1 mM sodium pyruvate (CC Pro, Oberdorla, Germany), 20 μg/ml Gentamycin (Cambrex). 2.5 ng/ml IL-7 (PromoCell, Heidelberg, Germany) and 10 U/ml IL-2 (Novartis Pharma, Nürnberg, Germany) were also added to the TCM at this step. Generation of pMHC/anti-CD28 coated beads, T-cell stimulations and readout was performed in a highly defined in vitro system using four different pMHC molecules per stimulation condition and 8 different pMHC molecules per readout condition.
The purified co-stimulatory mouse IgG2a anti human CD28 Ab 9.3 (Jung et al., 1987) was chemically biotinylated using Sulfo-N-hydroxysuccinimidobiotin as recommended by the manufacturer (Perbio, Bonn, Germany). Beads used were 5.6 μm diameter streptavidin coated polystyrene particles (Bangs Laboratories, Illinois, USA).
pMHC used for positive and negative control stimulations were A*0201/MLA-001 (peptide […] (SEQ ID NO. 289) from modified Melan-A/MART-1) and A*0201/DDX5-001 ([…] from DDX5, SEQ ID NO. 290), respectively.
800.000 beads/200 μl were coated in 96-well plates in the presence of 4×12.5 ng different biotin-pMHC, washed and 600 ng biotin anti-CD28 were added subsequently in a volume of 200 μl. Stimulations were initiated in 96-well plates by co-incubating […] CD8+ T cells with 2×10^5 washed coated beads in 200 μl TCM supplemented with 5 ng/ml IL-12 (PromoCell) for 3 days at 37° C. Half of the medium was then exchanged by fresh TCM supplemented with 80 U/ml IL-2 and incubating was continued for 4 days at 37° C. This stimulation cycle was performed for a total of three times. For the pMHC multimer readout using 8 different pMHC molecules per condition, a two-dimensional combinatorial coding approach was used as previously described (Andersen et al., 2012) with minor modifications encompassing coupling to 5 different fluorochromes. Finally, multimeric analyses were performed by staining the cells with Live/dead near IR dye (Invitrogen, Karlsruhe, Germany), CD8-FITC antibody clone SK1 (BD, Heidelberg, Germany) and fluorescent pMHC multimers. For analysis, a BD LSRII SORP cytometer equipped with appropriate lasers and filters was used. Peptide specific cells were calculated as percentage of total CD8+ cells. Evaluation of multimeric analysis was done using the FlowJo software (Tree Star, Oreg., USA). In vitro priming of specific multimer+ CD8+ lymphocytes was detected by comparing to negative control stimulations.

[1] = HLA-A*02 healthy donor CD8+ T cells, three stimulation cycles

Substance | Wells positive [%] | further results
287 (KIQEILTQV; listed as Homo sapiens) [compound 287] |  | in vitro immunogenicity: wells [1]: + (<20% = +)
264 (TLHDQVHLL; listed as Homo sapiens) [compound 264] | + (<20% = +) | 
34 (TLNTLDINL; listed as Homo sapiens) [compound 34] | ++++ (≥70% = ++++) | 
14 (YTFSGDVQL; listed as Homo sapiens) [compound 14] | + (<20% = +) | 
29 (KMISAIPTL; listed as Homo sapiens) [compound 29] | + (<20% = +) | 
102 (GLYPVTLVGV; listed as Homo sapiens) [compound 102] | + (<20% = +) | 
242 (KLQEEIPVL; listed as Homo sapiens) [compound 242] | + (<20% = +) | 
35 (VIIKGLEEI; listed as Homo sapiens) [compound 35] | + (<20% = +) | 
257 (KLIDHQGLYL; listed as Homo sapiens) [compound 257] | + (<20% = +) | 
288 (SLYKGLLSV; listed as Homo sapiens) [compound 288] |  | in vitro immunogenicity: donors (percentage of positive donors, HLA-A*02 healthy donor CD8+ T cells, three stimulation cycles): ++++ (≥70% = ++++); in vitro immunogenicity: wells [1]: ++ (20%-49% = ++)
101 (SLLEVNEASSV; listed as Homo sapiens) [compound 101] | + (<20% = +) | 
246 (ALAGIVTNV; listed as Homo sapiens) [compound 246] | + (<20% = +) | 
121 (ALYVQAPTV; listed as Homo sapiens) [compound 121] | + (<20% = +) | 
236 (KMSELQTYV; listed as Homo sapiens) [compound 236] | + (<20% = +) | 
9 (SLITGQDLLSV; listed as Homo sapiens) [compound 9] | + (<20% = +) | 
157 (ILQDGQFLV; listed as Homo sapiens) [compound 157] | + (<20% = +) | 

Substance | Wells positive [%] | further results
263 (SIIEYLPTL; listed as Homo sapiens) [compound 263] | + (<20% = +) | 
260 (ALNESLVEC; listed as Homo sapiens) [compound 260] | + (<20% = +) | 
255 (FLMKNSDLYGA; listed as Homo sapiens) [compound 255] | + (<20% = +) | 
27 (GLLGKVTSV; listed as Homo sapiens) [compound 27] | + (<20% = +) | 
66 (AMFPDTIPRV; listed as Homo sapiens) [compound 66] | + (<20% = +) | 
89 (SLAETIFIV; listed as Homo sapiens) [compound 89] | + (<20% = +) | 
97 (KLFEKSTGL; listed as Homo sapiens) [compound 97] | + (<20% = +) | 
267 (YLLDMPLWYL; listed as Homo sapiens) [compound 267] | + (<20% = +) | 
77 (ALYGNVQQV; listed as Homo sapiens) [compound 77] | + (<20% = +) | 
254 (ALGDKFLLRV; listed as Homo sapiens) [compound 254] | + (<20% = +) | 
233 (SLFESLEYL; listed as Homo sapiens) [compound 233] | + (<20% = +) | 
50 (ILLSVLHQL; listed as Homo sapiens) [compound 50] | + (<20% = +) | 
17 (GLLPSAESIKL; listed as Homo sapiens) [compound 17] | + (<20% = +) | 
39 (YLEDGFAYV; listed as Homo sapiens) [compound 39] | ++++ (≥70% = ++++) | 
4 (VLFGELPAL; listed as Homo sapiens) [compound 4] | + (<20% = +) | 
